Laboratory results published in ChEMBL document CHEMBL2203115, “Design and synthesis of procollagen C-proteinase inhibitors” (Bioorg Med Chem Lett, 2012).
Peptide text beside a SMILES is read from it. * marks the point of attachment. NHOH = ON*

Legend:
[1] = target: T1, Bone morphogenetic protein 1 (Homo sapiens, UniProt P13497); assay: Inhibition of PCP after 1 hr by fluorescence assay
T1 sequence (P13497 whole entry): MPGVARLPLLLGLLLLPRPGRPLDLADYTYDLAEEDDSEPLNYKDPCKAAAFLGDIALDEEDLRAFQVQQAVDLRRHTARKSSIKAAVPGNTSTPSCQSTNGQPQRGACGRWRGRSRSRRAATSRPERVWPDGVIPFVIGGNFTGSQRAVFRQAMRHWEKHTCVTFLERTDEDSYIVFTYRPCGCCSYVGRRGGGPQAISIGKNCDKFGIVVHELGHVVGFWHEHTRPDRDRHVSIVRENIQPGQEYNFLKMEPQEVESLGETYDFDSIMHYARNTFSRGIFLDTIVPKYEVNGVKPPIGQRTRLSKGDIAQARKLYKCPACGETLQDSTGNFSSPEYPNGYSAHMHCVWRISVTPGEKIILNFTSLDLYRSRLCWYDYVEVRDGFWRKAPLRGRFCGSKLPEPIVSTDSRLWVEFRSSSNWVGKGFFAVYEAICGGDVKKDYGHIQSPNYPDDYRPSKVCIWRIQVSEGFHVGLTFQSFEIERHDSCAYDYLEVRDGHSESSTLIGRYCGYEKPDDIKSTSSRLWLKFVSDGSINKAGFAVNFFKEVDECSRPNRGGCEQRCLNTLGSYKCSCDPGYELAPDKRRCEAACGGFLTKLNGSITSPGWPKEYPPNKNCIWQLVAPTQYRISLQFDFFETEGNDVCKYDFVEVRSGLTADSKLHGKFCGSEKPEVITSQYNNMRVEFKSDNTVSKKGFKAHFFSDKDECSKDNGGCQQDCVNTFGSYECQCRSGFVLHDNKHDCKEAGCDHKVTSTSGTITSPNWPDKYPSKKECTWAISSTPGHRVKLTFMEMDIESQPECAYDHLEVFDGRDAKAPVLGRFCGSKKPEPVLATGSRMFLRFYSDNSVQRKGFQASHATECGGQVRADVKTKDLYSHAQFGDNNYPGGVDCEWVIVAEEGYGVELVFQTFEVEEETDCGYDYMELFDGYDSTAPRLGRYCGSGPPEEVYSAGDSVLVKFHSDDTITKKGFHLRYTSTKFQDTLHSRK

[2] = target: Matrix metalloproteinase-9 (Homo sapiens, UniProt P14780); assay: Inhibition of para-amino phenylmercuric acetate-activated MMP9 using Mca-P-L-G-L-Dap(Dnp)-A-R-NH2 as substrate after 1 hr by fluorescence assay
[3] = target: 72 kDa type IV collagenase (Homo sapiens, UniProt P08253); assay: Inhibition of para-amino phenylmercuric acetate-activated MMP2 using Mca-P-L-G-L-Dap(Dnp)-A-R-NH2 as substrate after 1 hr by fluorescence assay
Interstitial collagenase = target: T2, Interstitial collagenase (Homo sapiens, UniProt P03956); assay: Inhibition of para-amino phenylmercuric acetate-activated MMP1 using Mca-P-L-G-L-Dap(Dnp)-A-R-NH2 as substrate after 1 hr by fluorescence assay
T2 sequence (P03956 whole entry): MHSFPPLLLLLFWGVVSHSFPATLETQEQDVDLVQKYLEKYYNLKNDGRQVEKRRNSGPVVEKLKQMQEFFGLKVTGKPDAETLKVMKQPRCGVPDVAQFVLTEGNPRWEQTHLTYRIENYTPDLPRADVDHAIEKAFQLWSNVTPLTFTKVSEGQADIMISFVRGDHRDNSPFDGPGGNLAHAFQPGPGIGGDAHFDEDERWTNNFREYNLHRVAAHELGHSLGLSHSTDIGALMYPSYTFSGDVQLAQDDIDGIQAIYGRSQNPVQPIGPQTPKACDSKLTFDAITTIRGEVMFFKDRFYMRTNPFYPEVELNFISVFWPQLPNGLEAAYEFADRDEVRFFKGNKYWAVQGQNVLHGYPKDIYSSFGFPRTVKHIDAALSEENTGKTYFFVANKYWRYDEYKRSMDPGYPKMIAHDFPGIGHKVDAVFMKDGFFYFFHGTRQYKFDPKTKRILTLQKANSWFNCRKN

3T3-L1 = assay: Cytotoxicity against mouse 3T3L1 cells; assay type: cell-based

Chain of Matrix metalloproteinase-9 (P14780 whole entry): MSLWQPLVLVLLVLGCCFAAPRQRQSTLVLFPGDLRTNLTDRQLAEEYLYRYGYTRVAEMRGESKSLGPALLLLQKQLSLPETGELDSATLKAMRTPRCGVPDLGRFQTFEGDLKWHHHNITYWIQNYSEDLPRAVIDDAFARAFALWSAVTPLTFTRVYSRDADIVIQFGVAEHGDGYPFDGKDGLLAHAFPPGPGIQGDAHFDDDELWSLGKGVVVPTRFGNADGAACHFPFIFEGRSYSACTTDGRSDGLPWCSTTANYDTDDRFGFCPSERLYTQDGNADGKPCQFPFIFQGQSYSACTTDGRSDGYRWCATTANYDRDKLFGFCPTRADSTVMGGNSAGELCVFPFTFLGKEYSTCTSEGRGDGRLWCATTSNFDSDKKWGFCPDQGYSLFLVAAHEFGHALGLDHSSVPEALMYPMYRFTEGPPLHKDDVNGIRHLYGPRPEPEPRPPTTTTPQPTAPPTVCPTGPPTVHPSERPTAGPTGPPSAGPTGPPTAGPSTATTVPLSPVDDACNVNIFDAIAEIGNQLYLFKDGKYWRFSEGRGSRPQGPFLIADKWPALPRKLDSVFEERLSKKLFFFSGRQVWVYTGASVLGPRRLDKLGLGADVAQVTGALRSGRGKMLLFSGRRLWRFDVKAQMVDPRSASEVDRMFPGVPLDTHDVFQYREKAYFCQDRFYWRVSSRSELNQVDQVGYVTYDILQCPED
Chain of 72 kDa type IV collagenase (P08253 whole entry): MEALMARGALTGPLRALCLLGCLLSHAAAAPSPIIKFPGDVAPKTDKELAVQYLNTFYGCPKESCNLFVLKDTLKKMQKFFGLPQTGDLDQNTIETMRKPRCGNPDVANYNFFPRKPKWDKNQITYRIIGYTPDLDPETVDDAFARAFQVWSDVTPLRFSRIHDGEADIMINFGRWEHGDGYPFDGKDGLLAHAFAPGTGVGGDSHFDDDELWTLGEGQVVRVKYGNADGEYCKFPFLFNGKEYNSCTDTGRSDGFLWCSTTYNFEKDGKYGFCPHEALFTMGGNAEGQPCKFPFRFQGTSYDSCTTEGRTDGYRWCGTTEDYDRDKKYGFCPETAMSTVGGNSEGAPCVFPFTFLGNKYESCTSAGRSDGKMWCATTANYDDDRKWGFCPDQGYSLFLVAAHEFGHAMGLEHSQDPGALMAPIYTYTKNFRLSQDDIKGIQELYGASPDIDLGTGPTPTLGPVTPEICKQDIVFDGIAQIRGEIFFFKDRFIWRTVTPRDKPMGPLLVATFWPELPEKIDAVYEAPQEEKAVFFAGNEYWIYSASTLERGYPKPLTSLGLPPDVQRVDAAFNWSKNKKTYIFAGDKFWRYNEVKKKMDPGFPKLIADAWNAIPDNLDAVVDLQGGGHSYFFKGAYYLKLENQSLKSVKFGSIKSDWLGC

Row | Compound | IC50 [1] [µM] | other results
1 | COc1ccc(N(CC(=O)NO)S(=O)(=O)c2ccc(OC)cc2)cc1 | 73 | 
2 | COc1ccc(S(=O)(=O)N(CCC(=O)NO)CCc2ccccn2)cc1 | 8.1 | 
3 | COc1ccc(CCN(CC(=O)NO)S(=O)(=O)c2ccc(OC)cc2)cc1 | 18 | 
4 | COc1ccc(S(=O)(=O)N(CCc2ccccc2)CC(=O)NO)cc1 | 18 | 
5 | COc1ccc(CCN(CCS)S(=O)(=O)c2ccc(S(C)(=O)=O)cc2)cc1 | 9.4 | 
6 | COc1ccc(S(=O)(=O)N(CC(=O)NO)Cc2ccc(F)cc2)cc1 | 34 | 
7 | O=C(CCN(CCc1ccccc1)S(=O)(=O)c1ccc(C(=O)O)cc1)NO | 1 | 
8 | COc1ccc(CCN(CCC(=O)NO)S(=O)(=O)c2ccc(NC(=O)NCc3ccccc3)cc2)cc1 |  | IC50 [2]: > 25 µM; IC50 [3]: > 25 µM; IC50 (Interstitial collagenase): > 25 µM
9 | CNC(=O)[C@H](CCC(=O)O)NC(=O)C(CS)CC(=O)O (stereo not given in full) | 85 | 
10 | COc1ccc(S(=O)(=O)N(CCC(=O)NO)CCc2ccc([N+](=O)[O-])cc2)cc1 | 11 | 
11 | COc1ccc(S(=O)(=O)N(CCC(=O)NO)CC2CCCCC2)cc1 | 1 | 
12 | COc1ccc(CCN(CCC(=O)CS)S(=O)(=O)c2ccc(S(C)(=O)=O)cc2)cc1 | 13 | 
13 | COc1ccc(S(=O)(=O)N(CC(=O)NO)Cc2ccccc2)cc1 | 16 | 
14 | CNC(=O)[C@H](CCC(=O)O)NC(=O)[C@H](CC(=O)O)NCC(=O)O | 1500 | 
15 | COc1ccc(S(=O)(=O)N(Cc2ccccc2)[C@@H](CC(=O)O)C(=O)NO)cc1 | 2.8 | 
16 | COc1ccc(S(=O)(=O)N(CC(=O)O)CC(=O)NO)cc1 | 345 | 
17 | CNC(=O)[C@H](CCC(=O)O)NC(=O)C(CC(=O)O)CC(=O)NO (mixture of isomers) | 40 | 

Row | Compound | IC50 [1] [µM] | other results
18 | COc1ccc(CN(CC(=O)NO)S(=O)(=O)c2ccc(OC)cc2)cc1 | 29 | 
19 | COc1ccc(CCN(CC(=O)CS)S(=O)(=O)c2ccc(S(C)(=O)=O)cc2)cc1 | 4.7 | 
20 | COc1ccc(CCN(CCC(=O)NO)S(=O)(=O)c2ccccc2S(C)(=O)=O)cc1 | 9.1 | 
21 | COc1ccc(S(=O)(=O)N(CC(=O)NO)c2ccccc2)cc1 | 69 | 
22 | O=C(CCN(CCc1ccccc1)S(=O)(=O)c1ccccc1)NO | 2.2 | 
23 | COc1ccc(CCN(CCCS)S(=O)(=O)c2ccc(S(C)(=O)=O)cc2)cc1 | 14 | 
24 | COc1ccc(CCN(CCC(=O)NO)S(=O)(=O)c2ccc(S(C)(=O)=O)cc2)cc1 |  | IC50 [2]: > 6 µM; IC50 [3]: > 6 µM
25 | COc1ccc(S(=O)(=O)N(CCC(=O)NO)CCc2ccc(S(N)(=O)=O)cc2)cc1 | 23 | 
26 | COc1ccc(CCN(CCC(=O)NO)S(=O)(=O)c2ccccc2/C(N)=N\O)cc1 | 7.1 | 
27 | COc1ccc(S(=O)(=O)N(CCCC(=O)NO)Cc2ccccc2)cc1 | 10 | 
28 | COc1ccc(S(=O)(=O)N(CC(=O)NO)C(c2ccccc2)c2ccccc2)cc1 | 102 | 
29 | COc1ccc(S(=O)(=O)N(CC(=O)NO)Cc2ccc(Cl)cc2)cc1 | 19 | IC50 [2]: 0.05 µM; IC50 [3]: 0.14 µM
30 | COc1ccc(CCN(CCC(=O)NO)S(=O)(=O)c2ccc(/C(N)=N/O)cc2)cc1 |  | IC50 [2]: > 25 µM; IC50 [3]: > 25 µM; IC50 (Interstitial collagenase): > 25 µM; IC50 (3T3-L1): 150 µM
31 | COc1ccc(CCN(CCN(O)C(N)=O)S(=O)(=O)c2ccc(S(C)(=O)=O)cc2)cc1 | > 100 | 
32 | COc1ccc(S(=O)(=O)N(CCC(=O)NO)CCc2cccc(OC)c2)cc1 | 2.3 | 
33 | CC(=O)N1CCC[C@H]1C(=O)N[C@@H](Cc1ccc(O)cc1)C(=O)N[C@@H](Cc1ccc(O)cc1)C(=O)NCC(=O)NO (Ac-PYYG-{NHOH}) | 42 | 

Continued by falling IC50 [1], values first:

Row | IC50 [1] [µM] | Compound | other results
34 | 167 | CCCCOC(=O)CN(CC(=O)NO)S(=O)(=O)c1ccc(OC)cc1 | 
35 | 166 | COc1ccc(S(=O)(=O)NCCC(=O)NO)cc1 | 
36 | 112 | CCC(C)N(CC(=O)NO)S(=O)(=O)c1ccc(OC)cc1 (stereo not given) | 
37 | 67 | COc1ccc(S(=O)(=O)N(CC(=O)NO)Cc2ccc(C(F)(F)F)cc2)cc1 | 
38 | 55 | CCCCS(=O)(=O)N(CCc1ccc(OC)cc1)CC(=O)NO | 
39 | 42 | COc1ccc(S(=O)(=O)N(CCC(=O)NO)CCc2ccc(OC)c(OC)c2)cc1 | 
40 | 28 | COc1ccc(S(=O)(=O)N(CCCC(=O)NO)c2ccccc2)cc1 | 
41 | 17 | CC(C)(C)c1ccc(S(=O)(=O)N(CCC(=O)NO)CCc2ccccc2)cc1 | 
42 | 10 | COc1ccc(S(=O)(=O)N[C@@H](CC(=O)O)C(=O)NO)cc1 | 
43 | 6.7 | CCCCS(=O)(=O)N(CCC(=O)NO)CCc1ccc(OC)cc1 | 
44 | 4.5 | COc1ccc(S(=O)(=O)N(CCC(=O)NO)Cc2ccccc2)cc1 | 
45 | 3 | COc1ccc(S(=O)(=O)N(CCC(=O)NO)c2ccccc2)cc1 | 
46 | 1.7 | COc1ccc(N(CCC(=O)NO)S(=O)(=O)c2ccc(OC)cc2)cc1 | 
47 | 1.7 | CCC(C)N(CCC(=O)NO)S(=O)(=O)c1ccc(OC)cc1 (stereo not given) | 
